{"source": "patent US20070213291A1", "about": "“Therapeutically useful synthetic oligonucleotides” (priority 1999, published 2007)", "key": {"caspase 7": {"tested_on": "caspase 7", "test": "Caspase 7 activation by Western blot", "format": "cell-based, human", "conditions": "Jurkat, 72 h, 100 μg/ml (FIG. 3B)", "method": "(§1) Jurkat T cell leukemia cells were incubated for 72 h with 6 base GT SEQ ID NO:25. The cells were washed 3× with PBS, lysed with 10 mM HEPES, pH 7.5 containing 5 mM MgCl2, 1 mM dithiothreitol, 1.5 nM aprotinin, 10 mM leupeptin and 2.5 μm Na orthovanadate, and the protein content of the lysate was determined (Bradford J. Anal. Biochem. 72:248, 1976).\n(§2) Activated caspase 7 and PARP cleavage were detected by Western blot analysis. Lysate was mixed with Laemmli buffer (Laemmli U. Nature […], 1970), shaken, and heated at 100° C. for 4 min. […] The separated proteins were electroblotted onto a PVDF membrane. Equal protein loading was monitored by Ponceau red staining of the membrane.\n(§3) The membrane was blocked overnight at 4° C. with a buffer containing 1% Tris-buffered saline (2 mM Tris-HCl, 13.7 mM NaCl, pH 7.6, and 0.1% polyethylenesorbitan monolaurate (TWEEN 20) (TBST) +5% non-fat dry milk. The membrane was washed and was incubated for 1 h at RT with a mouse monoclonal IgG anti-caspase 7 antibody (Pharmingen) (diluted 1:1000 in TBST+1% BSA) or with a mouse monoclonal IgG anti-PARP antibody (diluted 1:1000 in TBST+1% BSA) (Pharmingen). IgG bound to caspase 7 or to PARP was detected with sheep anti-mouse IgG conjugated to horseradish peroxidase (diluted 1:1000 in TBST+5% non-fat dry milk) (Pharmingen). […]"}, "[1]": {"test": "Melting temperature (Tm) of sequences", "format": "physicochemical"}, "[2]": {"tested_on": "OVCAR-3 human ovarian cancer cells", "test": "Inhibition of OVCAR-3 cell proliferation (MTT)", "format": "cell-based", "conditions": "100 μg/ml, 48 h, 5×10^5 cells/ml", "method": "(§4) Cells were seeded in 6 (1 ml/well), 24 (0.5 ml/well) or 96 (0.1 ml/well) well flat-bottom microplates and were maintained at 37° C. in a 5% CO2 atmosphere. Unless stated otherwise, 2.5×10^5 cells/ml were incubated with 0 μg/ml (control) and 100 μg/ml (treated) of 2 to 45 base sequences containing A, C, G and T for 48 h.\n(§5) Cell proliferation was measured using dimethylthiazol-diphenyl-tetrazolium (MTT) reduction (Mosman et al. J. Immunol. Methods 65:55, 1983). MTT was measured at a wavelength of 570 nm using a multiplate spectrophotometer reader (ELX800, Bio-TEK Instruments Inc., Winooski, Vt.).\nOVCAR-3 ovarian cancer cells are a p53 mutated, p21/waf-1/Cip deleted, metastatic human solid tumor model. OVCAR-3 cells (5×10^5 cells/ml) were incubated with 2, 6 and 18 base GT sequences and with a 6 base AGT sequence (Table 11)."}, "[3]": {"tested_on": "L-1210 murine leukemia cells", "test": "Inhibition of L-1210 cell proliferation", "format": "cell-based", "method": "as §4, §5"}, "[4]": {"tested_on": "EL-4 murine T lymphoma cells", "test": "EL-4 murine T lymphoma in C57/BL6 mice", "format": "in vivo", "conditions": "after 4 weeks of treatment, compared with group 1 (saline)", "method_in_brief": "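C57/BL6 mice bearing implanted EL-4 cells, 10 per group, dosed from day 0 with saline or one of several GT- or AG-containing oligonucleotides. Tumor mass determined at sacrifice after 4 weeks of treatment.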"}, "[5]": {"tested_on": "SK-OV-3 human ovarian cancer cells", "test": "Inhibition of SK-OV-3 cell proliferation (MTT)", "format": "cell-based", "conditions": "100 μg/ml, 48 h, 5×10^5 cells/ml", "method": "as §4, §5\nSK-OV-3 ovarian cancer cells are a p53 mutated, p21/waf-1/Cip deleted, p15^ink4B deleted, p16^Ink4 deleted, metastatichuman solid tumor model. SK-OV-3 cells (5×10^5 cells/ml) were incubated with 2, 6 and 18 base GT sequences (Table 12)."}, "PARP": {"tested_on": "PARP", "test": "PARP cleavage by Western blot", "format": "cell-based, human", "conditions": "Jurkat, 72 h, 100 μg/ml (FIG. 3B)", "method": "as §1, §2, §3"}, "[6]": {"tested_on": "MCF-7 human breast cancer cells", "test": "Cell cycle stage in MCF-7 cells (propidium iodide flow cytometry)", "format": "cell-based", "conditions": "MCF-7, 5×10^5 cells/ml, 24 h", "method": "Cell cycle stage was determined using a […]™ PLUS DNA commercial kit (Becton Dickinson). Briefly, nuclei from cells were obtained by dissolving the cell membrane in a nonionic detergent, eliminating the cell cytoskeleton and nuclear proteins with trypsin, digesting the cellular RNA with RNase and stabilizing the nuclear chromatin with spermine. Propidium iodide was added to the cell nuclei and their fluorescence was analyzed in a flow cytometer equipped with electronic doublet discrimination capability (FACSCalibur, Becton Dickinson, San Jose, Calif.). Accumulation of cells in G0/G1, early S (SE), mid S (SM), late S (SL) or G2/M phases of the cell cycle was analyzed using MODFIT LT software (Verity Software House Inc., Topsham, Mass.).\nExponentially growing Jurkat human leukemia T cells (Table 28) and MCF-7 human breast cancer cells (5×10^5 cells/ml) (Table 29) were incubated for 24 h with 2, 6, 15, 18, 27 and 45 base sequences containing A, C, G and T. The cells were collected and centrifuged and cell cycle stage was determined."}, "caspase 3": {"tested_on": "caspase 3", "test": "Caspase 3 activation, colorimetric (p-nitroanilide peptide cleavage)", "format": "cell-based, human", "conditions": "Jurkat, 72 h, 100 μg/ml", "method": "To determine caspase activation, control and treated cells are washed, fixed, permeabilized and incubated with an FITC-conjugated antibody that recognizes the active form of the caspase (Pharmingen, San Diego, Calif.) using the conditions recommended by the manufacturer. Fluorescence associated with active caspase 3 is analyzed by flow cytometry on a FACSCALIBUR using the program CellQUEST (Becton Dickinson). Alternatively, caspase activation is determined colorimetrically using an assay based on the cleavage of a caspase-specific peptide conjugated to the color reporter molecule p-nitroanilide, which can be quantitated spectrophotometrically at a wavelength of 405 nm.\nJurkat T cell leukemia cells were incubated for 72 h with 33 base GT SEQ ID NO:66; 11 base GT SEQ ID NO:81 (bases 1-11 of GT SEQ ID NO:66), 11 base GT SEQ ID NO:82 (bases 12-22 of GT SEQ ID NO:66), 11 base GT SEQ ID NO:83 (bases 23-33 of GT SEQ ID NO:66) and 15 base ACG SEQ ID NO:67. Active caspase 3 (17-22 kDa) was determined using FITC conjugated antibody (Clone: C92-605) as in Example 28.\nCaspase 3 activation also was determined colorimetrically as in Example 28.\nJurkat T cell leukemia cells were incubated for 72 h with 6 base GT SEQ ID NO:25. Caspase 3 activation was determined colorimetrically as in Example 28."}}, "note": "“And” between values parts separate entries of the source, which are not always exact repeats. Equal entries are not always repeated.", "data": [{"sequence": "GGGTGG [SEQ ID NO:25]", "values": [{"measurement": "processing of inactive pro-caspase 7 to active caspase 7", "setting": "caspase 7", "result": "induced processing of inactive pro-caspase 7 (30 kDa) to active caspase 7 (19-20 kDa)"}, {"measurement": "melting temperature (Tm)", "setting": "[1]", "result": 2.5, "unit": "°C"}, {"measurement": "% INHIBITION of OVCAR-3 human ovarian cancer cell proliferation", "setting": "[2]", "result": "15% and 14%"}, {"measurement": "% inhibition of L-1210 murine cancer cell proliferation", "setting": "[3]", "result": 8, "unit": "%"}, {"measurement": "tumor mass", "setting": "[4]", "result": "less tumor mass than group 1 mice"}, {"measurement": "% INHIBITION of SK-OV-3 human ovarian cancer cell proliferation", "setting": "[5]", "result": 12, "unit": "%"}, {"measurement": "PARP cleavage", "setting": "PARP", "result": "active PARP to its inactive 85 kDa degradation product"}, {"measurement": "% cells in phase: G0/G1", "setting": "[6]", "result": 21.9, "unit": "%"}, {"measurement": "% cells in phase: G2/M", "setting": "[6]", "result": 17.4, "unit": "%"}, {"measurement": "% cells in phase: SE", "setting": "[6]", "result": 27.6, "unit": "%"}, {"measurement": "% cells in phase: SL", "setting": "[6]", "result": 10.9, "unit": "%"}, {"measurement": "% cells in phase: SM", "setting": "[6]", "result": 22.2, "unit": "%"}, {"measurement": "Arrest (cell cycle)", "setting": "[6]", "result": "End SM"}, {"measurement": "caspase 3 activity greater than in control cells", "setting": "caspase 3", "result": 323, "unit": "%"}]}]}
